Here are results for 13 substances from patent publication US20100286035A1, “NEUROMEDIN U DERIVATIVE” (Takeda Pharmaceutical Company Limited, priority 2007, published 2010).

Type in all cases: in vivo
Assay [1] deals with male C57BL/6J mice. As to the kind of experiment: Test Example 8: antifeedant activity of NMU-8 PEG conjugate in mice. Particulars: 100 nmol/kg intraperitoneally, mice fasted for 16 hours (FIG. 9). On the procedure: 7 weeks old male C57BL/6J mice delivered from the Japan Charles River Company were raised for 5 to 10 days after delivery under a feeding environment regulated for temperature and humidity with lighting time (25° C., 12 hours of lighted period and 12 hours of dark period, light was lit at 8:00). Four animals were placed in one cage. After handling the mice for 5 to 8 days, the animals were housed singly in each cage where a floor mesh was spread and acclimated by intraperitoneal injection for 3 days prior to the administration of a peptide (conjugate). The animals acclimated were fasted for 16 hours from 18:00 prior to the administration of the peptide (conjugate). However, the animals has free access to drinking water). Subsequently, a peptide (conjugate) dissolved in physiological saline solution was intraperitoneally injected to the mice, namely 24.3 μM PEG30k (ACP)-NMU-8 [14], 24.3 μM (PEG20k)2 (ACP)-NMU-8 [29], 24.3 μM PEG30k (AB)-NMU-8 [11], 24.3 μM (PEG20k)2 (AB)-NMU-8 [26], 24.3 μM PEG30k (NH-AB)-NMU-8 [42], 24.3 μM PEG30k (SMCC)-NMU-8 [4] were administered intraperitoneally at 10:00 on the day of administration to the mice such that the dosage of each solution (100 μl) was 100 nmol/kg. After the injection of the peptide (conjugate) solution, MF feed which had been weighed (Oriental Yeast Industry) was given freely to the mice. Further, the residual amount of the feed was measured after 3, 6 and 24 hours. The food intakes at 3, 6 and 24 hours were calculated by subtracting the residual amount of the feed after 3, 6 and 24 hours from the amount of the feed that was originally given.

Assay [2] deals with male C57BL/6J mice. As to the kind of experiment: Test Example 4: antifeedant activity of NMU-8 PEG conjugate in mice. Particulars: 100 nmol/kg intraperitoneally, mice fasted for 16 hours (FIG. 5). On the procedure: (§1) 7 weeks old male C57BL/6J mice delivered from the Japan Charles River Company were raised for 5 to 10 days after delivery under a feeding environment regulated for temperature and humidity with lighting time (25° C., 12 hours of lighted period and 12 hours of dark period, light was lit at 8:00). Four animals were placed in one cage. After handling the mice for 5 to 8 days, the animals were housed singly in each cage where a floor mesh was spread and acclimated by intraperitoneal injection for 3 days prior to the administration of a peptide (conjugate). The animals acclimated were fasted for 16 hours from 18:00 prior to the administration of the peptide (conjugate). However, the animals had free access to drinking water). Subsequently, a peptide dissolved in physiological saline solution (conjugate) was intraperitoneally injected into the mice, namely 24.2 μM PEG30k (GMBS)-NMU-8 [1], 24.2 μM PEG30k (EMCS)-NMU-8 [2], 24.2 μM PEG30k (KMUS)-NMU-8 [3], 24.2 μM PEG30k (SMCC)-NMU-8 [4] were administered intraperitoneally at 10:00 on the day of administration to the mice such that the dosage of each solution (100 μl) was 100 nmol/kg. After the injection of the peptide (conjugate) solution, MF feed which had been weighed (Oriental Yeast Industry) was given freely to the mice. Further, the residual amount of the feed was measured after 3, 6 and 24 hours. The food intakes at 3, 6 and 24 hours were calculated by subtracting the residual amount of the feed after 3, 6 and 24 hours from the amount of the feed that was originally given.

Assay [3] concerns male C57BL/6J mice. As to the kind of experiment: Test Example 5: antifeedant activity of NMU-8 PEG conjugate in mice. The note with it: 10 nmol/kg intraperitoneally, mice fasted for 16 hours (FIG. 6). On the procedure: (§2) 7 weeks old male C57BL/6J mice delivered from the Japan Charles River Company were raised for 5 to 10 days after delivery under a feeding environment regulated for temperature and humidity with lighting time (25° C., 12 hours of lighted period and 12 hours of dark period, light was lit at 8:00). Four animals were placed in one cage. After handling the mice for 5 to 8 days, the animals were housed singly in each cage where a floor mesh was spread and acclimated by intraperitoneal injection using a syringe (micro injector, syringe for insulin administration, Terumo) for 3 days prior to the administration of a peptide (conjugate). The animals acclimated were fasted for 16 hours from 18:00 prior to the administration of the peptide (conjugate). However, the animals had free access to drinking water). Subsequently, a peptide dissolved in physiological saline solution (conjugate) namely 2.39 μM PEG30k (GMBS)-NMU-8 [1], 2.39 μM PEG30k (EMCS)-NMU-8 [2], 2.39 μM PEG30k (KMUS)-NMU-8 [3], 2.39 μM PEG30k (SMCC)-NMU-8 [4] were administered intraperitoneally at 10:00 on the day of administration to the mice such that the dosage of each solution (100 μl) was 10 nmol/kg. After the injection of the peptide (conjugate) solution, MF feed which had been weighed (Oriental Yeast Industry) was given freely to the mice. Further, the residual amount of the feed was measured after 3, 6 and 24 hours. The food intakes at 3, 6 and 24 hours were calculated by subtracting the residual amount of the feed after 3, 6 and 24 hours from the amount of the feed that was originally given.

Assay [4] relates to male C57BL/6J mice. As to the kind of experiment: Test Example 6: antifeedant activity of NMU-8 PEG conjugate in mice. Particulars: 100 nmol/kg intraperitoneally, mice fasted for 16 hours (FIG. 7). On the procedure: as §1, with “Subsequently, a peptide dissolved in physiological saline solution (conjugate) was intraperitoneally injected into the mice, namely 24.2 μM PEG30k (GMBS)-NMU-8 [1], 24.2 μM PEG30k (EMCS)-NMU-8 [2], 24.2 μM PEG30k (KMUS)-NMU-8 [3], 24.2 μM PEG30k (SMCC)-NMU-8 [4] were administered intraperitoneally at 10:00 on the day of administration to the mice such that the dosage of each solution (100 μl) was 100 nmol/kg.” left out

Assay [5] has as its system male C57BL/6J mice. As to the kind of experiment: Test Example 7: antifeedant activity of NMU-8 PEG conjugate in mice. The note with it: 10 nmol/kg intraperitoneally, mice fasted for 16 hours (FIG. 8). On the procedure: as §2, with “animals were” for “animals had”, “namely 2.51” for “namely 2.39”, “μM PEG30k-NMU-8 [5], 2.51” for “μM PEG30k (GMBS)-NMU-8 [1], 2.39”, “μM PEG30k-Cys-NMU-8 [6], 2.51” for “μM PEG30k (EMCS)-NMU-8 [2], 2.39”, “μM PEG30k-(Traut)-NMU-8 [7], 2.51” for “μM PEG30k (KMUS)-NMU-8 [3], 2.39”

For assay [6], the system named is male C57BL/6J mice. As to the kind of experiment: Test Example 1: antifeedant activity of NMU-23 and NMS in mice. The note with it: 3 mg/kg intraperitoneally, mice fasted for 16 hours. On the procedure:
7 weeks old male C57BL/6J mice (mean bodyweight: 24 g) delivered from the Japan Charles River Company were raised for 5 to 7 days after the delivery under a feeding environment regulated for temperature and humidity with lighting time (25° C., 12 hours of lighted period and 12 hours of dark period, light was lit at 8:00). Four animals were placed in one cage. After handling the mice for 5 to 8 days, the animals were housed singly in each cage where a floor mesh was spread and acclimated by intraperitoneal injection for 3 days prior to the administration of a peptide. The animals acclimated were fasted for 16 hours from 18:00 prior to the administration of the peptide. However, the animals had free access to drinking water. Subsequently, a peptide, namely 720 μg/ml rat NMU-23 (peptide Institution) [Sequence No. 5], or rat NMS (Bachem) [Sequence No. 9] dissolved in physiological saline solution was intraperitoneally injected to the mice such that the dosage of each solution (100 μl) was 3 mg/kg at 10:00 on the day of administration. […] Further, the residual amount of the feed was measured after 3, 6 and 24 hours. The food intakes at 3, 6 and 24 hours were calculated by subtracting the residual amount of the feed after 3, 6 and 24 hours from the amount of the feed that was originally given. […]

Assay [7] concerns male C57BL/6J mice. As to the kind of experiment: Test Example 2: antifeedant activity of NMU-23 and NMU-8 in mice. On the procedure:
7 weeks old male C57BL/6J mice (mean bodyweight: 25 g) delivered from the Japan Charles River Company were raised for 5 to 10 days after delivery under a feeding environment regulated for temperature and humidity with lighting time (25° C., 12 hours of lighted period and 12 hours of dark period, light was lit at 8:00). Four animals were placed in one cage. After handling the mice for 5 to 8 days, the animals were housed singly in each cage where a floor mesh was spread and acclimated by intraperitoneal injection for 3 days prior to the administration of a peptide. The animals acclimated were fasted for 16 hours from 18:00 prior to the administration of the peptide. However, the animals had free access to drinking water. […] After the injection of the peptide solution, MF feed which had been weighed (Oriental Yeast Industry) was given freely to the mice. Further, the residual amount of the feed was measured after 3, 6 and 24 hours. The food intakes at 3, 6 and 24 hours were calculated by subtracting the residual amount of the feed after 3, 6 and 24 hours from the amount of the feed that was originally given.
[In FIG. 2, * and ** tested by T-tests indicated to be lower at the levels of significance of 0.05 and 0.01 (P<0.05 and P<0.01]

Where no end group is shown, it is not given here.

(PEG20k)2(AB)-NMU-8: the “intakes of the feed at 3, 6 and 24 hours” value in assay [1] is recorded as “significantly suppressed”.
Same read-out and setting: for (PEG20k)2(ACP)-NMU-8 the value was “significantly suppressed”.
For PEG30k(AB)-NMU-8, the “intakes of the feed at 3, 6 and 24 hours” value in assay [1] is recorded as “significantly suppressed”.
The same measure, in the same setting: to PEG30k(ACP)-NMU-8 belongs “significantly suppressed”.
As for PEG30k(EMCS)-NMU-8, the “intakes of the feed at 3, 6 and 24 hours” value in assay [2] and in assay [3] was “significantly suppressed” in each case.
Take PEG30k(GMBS)-NMU-8: the “intakes of the feed at 3, 6 and 24 hours” value in assay [2] and in assay [3] was “significantly suppressed” each time.
For the substance PEG30k(KMUS)-NMU-8, the “intakes of the feed at 3, 6 and 24 hours” value in assay [2] and in assay [3] was “significantly suppressed” each time.
In the case of PEG30k(SMCC)-NMU-8, the “intakes of the feed at 3, 6 and 24 hours” value in assay [2], in assay [3], in assay [4], in assay [5] and in assay [1] was “significantly suppressed” each time.
Take PEG30k(Traut)-NMU-8: the “intakes of the feed at 3, 6 and 24 hours” value in assay [4] and in assay [5] was “significantly suppressed” throughout.
Regarding “PEG30k-Cys-NMU-8 (C(PEG 30 kDa)FFLFRPRN-NH2)”, the “intakes of the feed at 3, 6 and 24 hours” value in assay [4] and in assay [5] was “significantly suppressed” throughout.
For the substance PEG30k-NMU-8, the “intakes of the feed at 3, 6 and 24 hours” value in assay [4] and in assay [5] was “significantly suppressed” in each case.
For “Tyr-Lys-Val-Asn-Glu-Tyr-Gln-Gly-Pro-Val-Ala-Pro-Ser-Gly-Gly-Phe-Phe-Leu-Phe-Arg-Pro-Arg-Asn-NH2 (YKVNEYQGPVAPSGGFFLFRPRN-NH2; listed as Rattus norvegicus) [rat NMU-23]”, in assay [6], the “intakes of the feed at 3, 6 and 24 hours” value is “significantly suppressed”. Besides, the “intakes of the feed at 3 and 6 hours” value in assay [7] (3 mg/kg intraperitoneally, mice fasted for 16 hours) is on record as “significantly suppressed”. The “antifeedant activity via peripheral administration” value in assay [7] (peripheral administration) was “expresses an antifeedant activity”.
On to “rat NMS: rat neuromedin S (Bachem) [Sequence No. 9] (LPRLLHTDSRMATIDFPKKDPTTSLGRPFFLFRPRN-NH2; listed as Rattus norvegicus)”, for which, in assay [6], the “intakes of the feed at 3, 6 and 24 hours” value is reported as “significantly suppressed”.
